Measured values published in ChEMBL document CHEMBL1649554, “Specific therapeutic schemes of omeprazole affect the orientation of Helicobacter pylori” (Antimicrob Agents Chemother, 2009).
The source made the active and inactive calls. The calls are words filed in the database; no cut-off is given here.

Key:
[1] = tested on: Helicobacter pylori; experiment: (§1) Antibacterial activity against Helicobacter pylori SS1 infected in Mongolian gerbils assessed as bacterial density in mucus in luminal mucus layer at 0.25 mg, ip administered as two doses of solvent in 24 hrs dosing interval measured after 90 mins post last dose (reference value: 60+/-50 bacteria per nl of mucus); format: functional
[2] = tested on: Helicobacter pylori; experiment: as §1, with “15 to 25 um above the Juxtamucosal” for “luminal mucus”, “2280+/-430” for “60+/-50”; format: functional
[3] = tested on: Helicobacter pylori; experiment: as §1, with “15 to 25 um above the Juxtamucosal” for “luminal mucus”, “ip followed by second dose” for “ip”, “as” for “as two doses of”, “2280+/-430” for “60+/-50”; format: functional
[4] = tested on: Helicobacter pylori; experiment: Antibacterial activity against Helicobacter pylori SS1 infected in Mongolian gerbils assessed as bacterial disorientation in central mucus layer at 0.25 mg, ip administered as two doses in 24 hrs dosing interval measured after 90 mins post last dose; format: functional, organism-based
[5] = tested on: Helicobacter pylori; experiment: as §1, with “doses” for “doses of solvent”, “8” for “24”; format: functional
[6] = tested on: Helicobacter pylori; experiment: Antibacterial activity against Helicobacter pylori SS1 infected in Mongolian gerbils assessed as bacterial disorientation in 15 to 25 um above the Juxtamucosal layer at 0.25 mg, ip administered as two doses of solvent measured after 90 mins post last dose (reference value: 4560+/-400 bacteria per nl of mucus); format: functional, organism-based
[7] = tested on: Helicobacter pylori; experiment: as §1, with “central” for “luminal”, “ip followed by second dose” for “ip”, “as” for “as two doses of”, “90+/-60” for “60+/-50”; format: functional
[8] = tested on: Helicobacter pylori; experiment: Antibacterial activity against Helicobacter pylori SS1 infected in Mongolian gerbils assessed as bacterial disorientation in 0 to 15 um above the Juxtamucosal layer at 0.25 mg, ip followed by second dose administered as solvent in 24 hrs dosing interval measured after 90 mins post last dose; format: functional, organism-based
[9] = tested on: Helicobacter pylori; experiment: Antibacterial activity against Helicobacter pylori SS1 infected in Mongolian gerbils assessed as bacterial orientation in 15 to 25 um above the Juxtamucosal layer at 35 ug/ml administered as single dose in 8 hrs dosing interval; format: functional, organism-based
[10] = tested on: Helicobacter pylori; experiment: Antibacterial activity against Helicobacter pylori SS1 infected in Mongolian gerbils assessed as bacterial orientation in 15 to 25 um above the Juxtamucosal layer at 0.25 mg, ip administered as two subsequent doses in 8 hrs dosing interval; format: functional, organism-based
[11] = tested on: Helicobacter pylori; experiment: Antibacterial activity against Helicobacter pylori SS1 infected in Mongolian gerbils assessed as bacterial disorientation in 0 to 15 um above the Juxtamucosal layer at 20 uM, ip administered as single dose through dialysis measured after 90 mins post last dose; format: functional, organism-based
[12] = tested on: Helicobacter pylori; experiment: Antibacterial activity against Helicobacter pylori SS1 infected in Mongolian gerbils assessed as bacterial disorientation in luminal mucus layer at 0.25 mg, ip administered as two doses in 24 hrs dosing interval measured after 90 mins post last dose; format: functional, organism-based
[13] = tested on: Helicobacter pylori; experiment: Antibacterial activity against Helicobacter pylori SS1 infected in Mongolian gerbils assessed as bacterial disorientation in 0 to 15 um above the Juxtamucosal layer at 0.25 mg, ip administered as two doses in 8 hrs dosing interval measured after 90 mins post last dose; format: functional, organism-based
[14] = tested on: Helicobacter pylori; experiment: Antibacterial activity against Helicobacter pylori SS1 infected in Mongolian gerbils assessed as bacterial disorientation in luminal mucus layer at 20 uM, ip administered as single dose through dialysis measured after 90 mins post last dose; format: functional, organism-based
[15] = tested on: Helicobacter pylori; experiment: Antibacterial activity against Helicobacter pylori SS1 infected in Mongolian gerbils assessed as bacterial density in mucus in luminal mucus layer at 100 uM, ip administered as single dose through dialysis measured after 90 mins post last dose; format: functional
[16] = tested on: Helicobacter pylori; experiment: Antibacterial activity against Helicobacter pylori SS1 infected in Mongolian gerbils assessed as bacterial disorientation in 15 to 25 um above the Juxtamucosal layer at 0.25 mg, ip administered as two doses in 8 hrs dosing interval measured after 90 mins post last dose; format: functional, organism-based
[17] = tested on: Helicobacter pylori; experiment: Antibacterial activity against Helicobacter pylori SS1 infected in Mongolian gerbils assessed as bacterial orientation in 0 to 15 um above the Juxtamucosal layer at 35 ug/ml administered as single dose in 8 hrs dosing interval; format: functional, organism-based
[18] = tested on: Helicobacter pylori; experiment: Antibacterial activity against Helicobacter pylori SS1 infected in Mongolian gerbils assessed as bacterial disorientation in central mucus layer at 0.25 mg, ip administered as two doses in 8 hrs dosing interval measured after 90 mins post last dose; format: functional, organism-based
[19] = tested on: Helicobacter pylori; experiment: Antibacterial activity against Helicobacter pylori SS1 infected in Mongolian gerbils assessed as bacterial disorientation in central mucus layer at 0.25 mg, ip followed by second dose administered as solvent in 24 hrs dosing interval measured after 90 mins post last dose; format: functional, organism-based
[20] = tested on: Helicobacter pylori; experiment: Antibacterial activity against Helicobacter pylori SS1 infected in Mongolian gerbils assessed as bacterial disorientation in central mucus layer at 20 uM, ip administered as single dose through dialysis measured after 90 mins post last dose; format: functional, organism-based
[21] = Cmax in Mongolian gerbils plasma at 0.5 mg, ip; format: ADME, organism-based, Meriones unguiculatus; set-up: dose 0.5 mg, route intraperitoneal; conditions: gerbil
[22] = tested on: Helicobacter pylori; experiment: (§2) Antibacterial activity against Helicobacter pylori SS1 infected in Mongolian gerbils assessed as bacterial density in mucus in 0 to 15 um above the Juxtamucosal layer at 0.25 mg, ip administered as two doses in 24 hrs dosing interval measured after 90 mins post last dose (reference value: 4560+/-400 bacteria per nl of mucus); format: functional
[23] = tested on: Helicobacter pylori; experiment: Antibacterial activity against Helicobacter pylori SS1 infected in Mongolian gerbils assessed as bacterial disorientation in 15 to 25 um above the Juxtamucosal layer at 20 uM, ip administered as single dose through dialysis measured after 90 mins post last dose; format: functional, organism-based
[24] = tested on: Helicobacter pylori; experiment: as §1, with “central” for “luminal”, “doses” for “doses of solvent”, “8” for “24”, “90+/-60” for “60+/-50”; format: functional
[25] = tested on: Helicobacter pylori; experiment: as §2, with “8” for “24”; format: functional
[26] = tested on: Helicobacter pylori; experiment: as §1, with “doses” for “doses of solvent”; format: functional
[27] = tested on: Helicobacter pylori; experiment: Antibacterial activity against Helicobacter pylori SS1 infected in Mongolian gerbils assessed as bacterial density in mucus in central mucus layer at 20 uM, ip administered as single dose through dialysis measured after 90 mins post last dose (reference value: 90+/-60 bacteria per nl of mucus); format: functional
[28] = tested on: Helicobacter pylori; experiment: Antibacterial activity against Helicobacter pylori SS1 infected in Mongolian gerbils assessed as bacterial disorientation in luminal mucus layer at 0.25 mg, ip followed by second dose administered as solvent in 24 hrs dosing interval measured after 90 mins post last dose; format: functional, organism-based

With COc1ccc2[nH]c([S+]([O-])Cc3ncc(C)c(OC)c3C)nc2c1 (stereo not drawn) [OMEPRAZOLE] the Activity [1] was 70 nL⁻¹, the Activity [2] was 2260 nL⁻¹ and the Activity [3] was 2030 nL⁻¹. The Activity [4] was “inactive”, the Activity [5] was 30 nL⁻¹ and the Activity [6] was “inactive”. The Activity [7] was 140 nL⁻¹, the Activity [8] was “Active” and the Activity [9] was “inactive”. The Activity [10] was “inactive”, the Activity [11] was “Active” and the Activity [12] was “inactive”. The Activity [13] was “Active”, the Activity [14] was “inactive” and the Activity [15] was 60 nL⁻¹. For the same compound, the Activity [16] was “inactive”, the Activity [17] was “inactive” and the Activity [18] was “inactive”. The Activity [19] was “inactive”, the Activity [20] was “inactive” and the Cmax [21] was 20 µM. For the same compound, the Activity [22] was 3310 nL⁻¹, the Activity [23] was “inactive” and the Activity [24] was 30 nL⁻¹. The Activity [25] was 4170 nL⁻¹, the Activity [26] was 120 nL⁻¹ and the Activity [27] was 70 nL⁻¹. For the same compound, the Activity [28] was “inactive”.
